Legend:
Adenosine receptor A3 = target: T1, Adenosine receptor A3 (Homo sapiens, UniProt P0DMS8)
T1 sequence (P0DMS8 whole entry): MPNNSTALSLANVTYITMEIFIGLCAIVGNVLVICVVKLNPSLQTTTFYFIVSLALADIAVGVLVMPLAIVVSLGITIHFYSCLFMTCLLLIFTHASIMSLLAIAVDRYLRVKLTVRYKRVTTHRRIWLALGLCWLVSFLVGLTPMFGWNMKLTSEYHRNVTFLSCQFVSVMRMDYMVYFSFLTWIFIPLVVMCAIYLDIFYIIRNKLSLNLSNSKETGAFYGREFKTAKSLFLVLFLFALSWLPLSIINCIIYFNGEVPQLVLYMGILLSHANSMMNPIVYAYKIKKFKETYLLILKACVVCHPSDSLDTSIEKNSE

[1] = target: T2, Muscarinic acetylcholine receptor M2 (Homo sapiens, UniProt P08172); format: functional, cell-based
T2 sequence (P08172 whole entry): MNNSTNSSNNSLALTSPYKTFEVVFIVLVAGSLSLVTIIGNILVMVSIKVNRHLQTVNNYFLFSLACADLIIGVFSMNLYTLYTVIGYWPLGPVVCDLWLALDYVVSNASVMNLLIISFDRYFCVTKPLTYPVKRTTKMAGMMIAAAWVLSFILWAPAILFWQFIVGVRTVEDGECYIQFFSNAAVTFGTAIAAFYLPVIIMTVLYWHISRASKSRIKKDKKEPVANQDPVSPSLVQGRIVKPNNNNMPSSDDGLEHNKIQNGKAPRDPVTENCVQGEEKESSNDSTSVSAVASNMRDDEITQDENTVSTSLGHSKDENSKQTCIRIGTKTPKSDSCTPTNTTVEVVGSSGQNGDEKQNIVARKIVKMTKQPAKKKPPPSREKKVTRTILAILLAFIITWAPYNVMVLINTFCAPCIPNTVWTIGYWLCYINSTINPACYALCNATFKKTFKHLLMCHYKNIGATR

[2] = target: T2, Muscarinic acetylcholine receptor M2; format: functional, cell-based; remark: listed apart in the source
Cannabinoid receptor 1 = Cannabinoid receptor 1 (Homo sapiens, UniProt P21554); format: functional, cell-based
[3] = target: T3, Gamma-aminobutyric acid receptor subunit alpha-1 (Rattus norvegicus, UniProt P62813)
[4] = target: T3, Gamma-aminobutyric acid receptor subunit alpha-1; format: functional
[5] = target: T4, Neuropeptide Y receptor type 1 (Homo sapiens, UniProt P25929)
T4 sequence (P25929 whole entry): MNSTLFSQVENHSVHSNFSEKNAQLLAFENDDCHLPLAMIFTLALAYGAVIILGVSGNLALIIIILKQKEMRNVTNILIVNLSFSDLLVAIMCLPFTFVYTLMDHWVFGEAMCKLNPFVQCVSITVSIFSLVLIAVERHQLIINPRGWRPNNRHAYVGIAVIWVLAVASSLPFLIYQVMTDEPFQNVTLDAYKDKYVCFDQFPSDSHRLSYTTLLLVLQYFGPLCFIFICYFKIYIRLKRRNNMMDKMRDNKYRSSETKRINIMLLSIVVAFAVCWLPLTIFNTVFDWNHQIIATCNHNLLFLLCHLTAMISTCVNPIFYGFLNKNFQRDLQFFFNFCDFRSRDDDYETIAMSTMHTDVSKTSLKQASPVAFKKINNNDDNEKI

Glucocorticoid receptor = target: T5, Glucocorticoid receptor (Homo sapiens, UniProt P04150)
T5 sequence (P04150 whole entry): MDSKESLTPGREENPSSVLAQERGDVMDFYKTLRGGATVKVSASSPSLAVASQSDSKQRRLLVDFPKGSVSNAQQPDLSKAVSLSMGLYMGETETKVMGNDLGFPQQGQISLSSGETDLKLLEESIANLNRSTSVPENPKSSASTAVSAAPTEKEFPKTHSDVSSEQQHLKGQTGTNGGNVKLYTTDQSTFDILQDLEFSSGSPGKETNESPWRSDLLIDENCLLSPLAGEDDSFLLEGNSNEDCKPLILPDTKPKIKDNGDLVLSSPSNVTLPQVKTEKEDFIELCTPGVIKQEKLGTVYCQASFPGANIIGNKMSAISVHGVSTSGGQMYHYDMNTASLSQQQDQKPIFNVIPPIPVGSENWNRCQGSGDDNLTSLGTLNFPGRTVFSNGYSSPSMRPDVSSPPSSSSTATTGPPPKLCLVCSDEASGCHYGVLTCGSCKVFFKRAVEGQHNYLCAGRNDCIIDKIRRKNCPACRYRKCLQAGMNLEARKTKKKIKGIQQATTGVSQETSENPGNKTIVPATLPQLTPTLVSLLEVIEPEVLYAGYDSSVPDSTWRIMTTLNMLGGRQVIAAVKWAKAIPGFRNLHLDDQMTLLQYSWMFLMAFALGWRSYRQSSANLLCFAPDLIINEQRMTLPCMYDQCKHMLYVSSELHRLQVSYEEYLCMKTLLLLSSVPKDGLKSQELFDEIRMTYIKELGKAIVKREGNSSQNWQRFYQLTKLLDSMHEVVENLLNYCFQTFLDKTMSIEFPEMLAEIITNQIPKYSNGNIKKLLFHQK

[6] = target: Delta-type opioid receptor (Homo sapiens, UniProt P41143)
[7] = target: 3',5'-cyclic-AMP phosphodiesterase 4D (Homo sapiens, UniProt Q08499); format: functional
Thromboxane A2 receptor = target: T6, Thromboxane A2 receptor (Homo sapiens, UniProt P21731)
T6 sequence (P21731 whole entry): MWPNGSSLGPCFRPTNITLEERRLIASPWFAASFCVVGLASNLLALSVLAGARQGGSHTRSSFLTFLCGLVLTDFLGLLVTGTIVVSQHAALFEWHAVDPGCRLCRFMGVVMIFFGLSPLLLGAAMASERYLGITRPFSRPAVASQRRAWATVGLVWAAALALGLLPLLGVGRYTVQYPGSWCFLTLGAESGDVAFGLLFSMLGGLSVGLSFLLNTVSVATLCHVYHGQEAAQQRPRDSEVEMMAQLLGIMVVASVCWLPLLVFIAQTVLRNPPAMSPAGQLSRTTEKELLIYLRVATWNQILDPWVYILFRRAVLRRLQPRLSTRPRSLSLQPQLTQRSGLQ

[8] = target: Sodium-dependent dopamine transporter (Homo sapiens, UniProt Q01959)
[9] = target: Muscarinic acetylcholine receptor M3 (Homo sapiens, UniProt P20309)
[10] = target: Sodium-dependent serotonin transporter (Homo sapiens, UniProt P31645)
Further: assay procedure not described here.

Chain of 3',5'-cyclic-AMP phosphodiesterase 4D (Q08499 whole entry): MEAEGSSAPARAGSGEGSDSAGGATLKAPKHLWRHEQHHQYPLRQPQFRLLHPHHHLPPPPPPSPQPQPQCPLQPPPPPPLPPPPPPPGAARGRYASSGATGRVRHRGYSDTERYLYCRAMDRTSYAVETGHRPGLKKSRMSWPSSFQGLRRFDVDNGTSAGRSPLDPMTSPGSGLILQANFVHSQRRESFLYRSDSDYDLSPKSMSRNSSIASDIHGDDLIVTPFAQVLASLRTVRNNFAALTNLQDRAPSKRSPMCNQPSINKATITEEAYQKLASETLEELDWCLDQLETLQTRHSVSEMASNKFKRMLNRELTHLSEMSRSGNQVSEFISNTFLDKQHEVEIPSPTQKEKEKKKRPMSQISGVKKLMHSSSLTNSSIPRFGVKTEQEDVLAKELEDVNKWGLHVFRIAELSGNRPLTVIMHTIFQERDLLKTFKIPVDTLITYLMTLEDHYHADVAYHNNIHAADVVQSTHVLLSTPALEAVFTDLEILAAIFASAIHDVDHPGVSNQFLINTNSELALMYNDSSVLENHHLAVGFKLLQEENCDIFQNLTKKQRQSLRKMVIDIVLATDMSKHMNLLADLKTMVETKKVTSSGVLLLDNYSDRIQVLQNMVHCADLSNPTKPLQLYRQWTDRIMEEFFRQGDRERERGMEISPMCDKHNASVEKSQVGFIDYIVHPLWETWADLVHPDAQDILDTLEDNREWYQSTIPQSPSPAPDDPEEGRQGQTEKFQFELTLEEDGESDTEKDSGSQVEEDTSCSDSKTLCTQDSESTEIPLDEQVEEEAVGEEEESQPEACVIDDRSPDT
T3 sequence (P62813 whole entry): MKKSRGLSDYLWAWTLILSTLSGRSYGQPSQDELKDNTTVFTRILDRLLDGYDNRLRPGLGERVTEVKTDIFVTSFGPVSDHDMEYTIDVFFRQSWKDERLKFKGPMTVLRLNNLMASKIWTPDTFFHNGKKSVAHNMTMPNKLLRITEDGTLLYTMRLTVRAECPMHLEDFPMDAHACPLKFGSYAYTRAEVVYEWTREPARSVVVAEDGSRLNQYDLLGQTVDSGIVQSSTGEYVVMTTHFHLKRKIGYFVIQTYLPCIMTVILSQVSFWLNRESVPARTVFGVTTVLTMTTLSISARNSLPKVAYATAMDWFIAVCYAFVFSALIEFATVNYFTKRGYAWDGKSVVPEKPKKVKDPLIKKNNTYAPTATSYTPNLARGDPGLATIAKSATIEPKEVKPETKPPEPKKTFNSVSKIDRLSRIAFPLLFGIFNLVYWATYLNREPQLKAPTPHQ
Chain of Delta-type opioid receptor (P41143 whole entry): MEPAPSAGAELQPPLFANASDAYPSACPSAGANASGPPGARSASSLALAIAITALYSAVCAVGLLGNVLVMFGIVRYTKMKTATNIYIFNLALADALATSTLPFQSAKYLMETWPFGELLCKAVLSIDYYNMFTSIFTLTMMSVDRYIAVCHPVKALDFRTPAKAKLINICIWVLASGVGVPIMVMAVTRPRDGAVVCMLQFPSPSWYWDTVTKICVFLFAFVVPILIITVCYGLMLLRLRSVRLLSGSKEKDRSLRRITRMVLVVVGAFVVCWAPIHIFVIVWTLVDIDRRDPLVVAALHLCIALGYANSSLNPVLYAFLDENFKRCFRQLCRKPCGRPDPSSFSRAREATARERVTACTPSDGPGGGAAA
Chain of Sodium-dependent dopamine transporter (Q01959 whole entry): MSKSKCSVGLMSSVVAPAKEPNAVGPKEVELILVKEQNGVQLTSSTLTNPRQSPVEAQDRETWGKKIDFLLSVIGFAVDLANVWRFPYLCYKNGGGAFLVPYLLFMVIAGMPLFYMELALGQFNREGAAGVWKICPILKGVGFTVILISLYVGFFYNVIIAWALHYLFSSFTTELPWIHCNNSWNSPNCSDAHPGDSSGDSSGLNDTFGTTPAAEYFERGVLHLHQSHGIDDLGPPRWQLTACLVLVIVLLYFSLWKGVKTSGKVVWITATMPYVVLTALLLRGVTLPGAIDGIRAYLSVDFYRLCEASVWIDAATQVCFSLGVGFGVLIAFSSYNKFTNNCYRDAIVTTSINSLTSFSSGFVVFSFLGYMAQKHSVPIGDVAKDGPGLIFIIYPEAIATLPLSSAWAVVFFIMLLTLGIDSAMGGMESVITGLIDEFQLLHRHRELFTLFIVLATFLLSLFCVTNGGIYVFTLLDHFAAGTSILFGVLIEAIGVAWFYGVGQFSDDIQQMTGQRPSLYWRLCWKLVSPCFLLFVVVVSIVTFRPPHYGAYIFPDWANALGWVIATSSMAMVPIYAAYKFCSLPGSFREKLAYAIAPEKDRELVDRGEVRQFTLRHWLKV
Chain of Sodium-dependent serotonin transporter (P31645 whole entry): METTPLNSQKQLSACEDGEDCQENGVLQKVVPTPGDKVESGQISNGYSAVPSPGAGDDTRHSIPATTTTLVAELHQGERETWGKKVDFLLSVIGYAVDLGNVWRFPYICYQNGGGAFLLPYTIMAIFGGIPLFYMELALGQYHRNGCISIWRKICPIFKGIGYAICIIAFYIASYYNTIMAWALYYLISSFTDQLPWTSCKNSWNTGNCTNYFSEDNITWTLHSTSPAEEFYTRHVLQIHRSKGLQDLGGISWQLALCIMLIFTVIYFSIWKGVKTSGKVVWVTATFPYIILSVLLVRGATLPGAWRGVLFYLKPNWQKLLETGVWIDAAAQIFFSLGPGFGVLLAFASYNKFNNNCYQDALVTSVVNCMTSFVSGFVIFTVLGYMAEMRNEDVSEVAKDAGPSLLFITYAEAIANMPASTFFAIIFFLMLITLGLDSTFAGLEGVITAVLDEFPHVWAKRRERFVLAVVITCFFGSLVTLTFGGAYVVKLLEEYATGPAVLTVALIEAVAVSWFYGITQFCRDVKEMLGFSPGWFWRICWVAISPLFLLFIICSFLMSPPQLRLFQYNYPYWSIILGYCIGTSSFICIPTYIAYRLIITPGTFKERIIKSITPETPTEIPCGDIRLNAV
Chain of Cannabinoid receptor 1 (P21554 whole entry): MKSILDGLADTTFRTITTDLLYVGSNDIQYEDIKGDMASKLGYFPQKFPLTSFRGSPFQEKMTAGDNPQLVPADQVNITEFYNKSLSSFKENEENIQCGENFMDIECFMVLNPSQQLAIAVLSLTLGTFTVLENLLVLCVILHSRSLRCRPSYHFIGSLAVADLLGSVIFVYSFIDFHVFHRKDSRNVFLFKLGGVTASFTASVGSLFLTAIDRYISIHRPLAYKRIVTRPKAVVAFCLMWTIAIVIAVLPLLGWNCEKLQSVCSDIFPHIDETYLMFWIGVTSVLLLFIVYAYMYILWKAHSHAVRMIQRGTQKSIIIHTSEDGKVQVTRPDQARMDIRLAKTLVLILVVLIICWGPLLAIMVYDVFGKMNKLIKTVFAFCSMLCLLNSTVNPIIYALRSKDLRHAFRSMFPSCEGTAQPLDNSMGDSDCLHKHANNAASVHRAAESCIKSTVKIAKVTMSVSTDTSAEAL
Chain of Muscarinic acetylcholine receptor M3 (P20309 whole entry): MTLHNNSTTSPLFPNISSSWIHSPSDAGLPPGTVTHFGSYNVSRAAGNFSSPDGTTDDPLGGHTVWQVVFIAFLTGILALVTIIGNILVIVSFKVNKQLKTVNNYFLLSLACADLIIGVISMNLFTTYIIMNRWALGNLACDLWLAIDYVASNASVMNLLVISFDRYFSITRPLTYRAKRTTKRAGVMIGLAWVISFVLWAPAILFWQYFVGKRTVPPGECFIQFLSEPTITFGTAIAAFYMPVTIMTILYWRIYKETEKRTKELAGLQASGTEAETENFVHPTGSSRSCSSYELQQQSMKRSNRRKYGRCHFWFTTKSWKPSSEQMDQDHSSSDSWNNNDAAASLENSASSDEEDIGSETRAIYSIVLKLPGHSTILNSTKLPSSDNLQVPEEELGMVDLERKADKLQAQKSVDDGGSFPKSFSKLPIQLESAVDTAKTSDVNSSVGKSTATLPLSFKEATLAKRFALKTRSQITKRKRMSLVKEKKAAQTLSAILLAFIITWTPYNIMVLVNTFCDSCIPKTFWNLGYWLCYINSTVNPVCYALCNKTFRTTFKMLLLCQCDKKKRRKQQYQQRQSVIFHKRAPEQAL

Compound | AC50 (Adenosine receptor A3) | AC50 [1] | AC50 [2] | AC50 (Cannabinoid receptor 1) | AC50 [3] | AC50 [4] | AC50 [5] | AC50 (Glucocorticoid receptor) | AC50 [6] | AC50 [7] | AC50 (Thromboxane A2 receptor) | AC50 [8] | AC50 [9] | AC50 [10]
Cc1cc2c(OCC(CNC(C)(C)C)OC(=O)c3ccccc3)cccc2[nH]1 (configuration not stated) [BOPINDOLOL] | > 30 µM | > 30 µM | > 30 µM | > 30 µM | > 30 µM | > 30 µM | > 30 µM | > 30 µM | > 30 µM | > 30 µM | > 30 µM | 12 µM |  | 
CCCCCOC(=O)Nc1nc(=O)n([C@@H]2O[C@H](C)[C@@H](O)[C@H]2O)cc1F [CAPECITABINE] | > 30 µM | > 30 µM | > 30 µM | > 30 µM |  | > 30 µM | > 30 µM |  | > 30 µM | > 30 µM |  | > 30 µM | > 30 µM | > 30 µM
CC(C)(Oc1ccc(C2CC2(Cl)Cl)cc1)C(=O)O (configuration not stated) [CIPROFIBRATE] | > 30 µM | > 30 µM | > 30 µM | > 30 µM | > 30 µM | > 30 µM | > 30 µM | > 30 µM | > 30 µM | > 30 µM | > 30 µM | > 30 µM |  | 
COC(=O)[C@H]1[C@@H](OC(=O)c2ccccc2)C[C@@H]2CC[C@H]1N2C [COCAINE] | > 30 µM | > 30 µM | > 30 µM | > 30 µM | > 30 µM | > 30 µM | > 30 µM |  | > 30 µM | > 30 µM | > 30 µM |  | > 30 µM | 
Cc1c(O)c(=O)ccn1C [DEFERIPRONE] | > 30 µM | > 30 µM | > 30 µM | > 30 µM | > 30 µM | > 30 µM | > 30 µM | > 30 µM | > 30 µM | > 30 µM | > 30 µM | > 30 µM |  | 
CN[C@@H](C)[C@H](O)c1ccccc1 [EPHEDRINE] | > 30 µM | 17 µM | > 10 µM | > 30 µM | > 10 µM | > 10 µM | > 30 µM | > 30 µM | > 30 µM | > 30 µM | > 30 µM | > 10 µM | > 10 µM | 
CN1CC[C@]23CCCC[C@H]2[C@H]1Cc1ccc(O)cc13 [LEVORPHANOL] | > 10 µM | > 10 µM | > 10 µM |  | > 10 µM | > 10 µM | > 10 µM |  | > 30 µM | > 30 µM | > 10 µM | > 30 µM | > 30 µM | 0.173 µM
CC/C=C\C/C=C\C/C=C\CCCCCCCC(=O)O [LINOLENIC ACID] | > 30 µM | > 30 µM | > 30 µM | > 30 µM | > 30 µM | > 30 µM | > 30 µM |  | > 30 µM | > 30 µM | > 30 µM | > 30 µM | > 30 µM | 
C[C@]12CCC(=O)C=C1CC[C@@H]1[C@@H]2CC[C@@]2(C)[C@H]1CC[C@]2(C)O [METHYLTESTOSTERONE] | > 30 µM | > 30 µM | > 30 µM | > 30 µM | > 30 µM | > 30 µM | > 30 µM | 0.44 µM | > 30 µM | > 30 µM | > 30 µM | > 30 µM |  | 
COc1c(C)c2c(c(O)c1C/C=C(\C)CCC(=O)OCCN1CCOCC1)C(=O)OC2 [MYCOPHENOLATE MOFETIL] | > 30 µM | > 30 µM | > 30 µM | > 30 µM | > 30 µM | > 30 µM | > 30 µM | > 30 µM | > 30 µM | > 30 µM | > 30 µM | > 30 µM |  | 
Cc1nc2ccc(CN(C)c3ccc(C(=O)N[C@@H](CCC(=O)O)C(=O)O)s3)cc2c(=O)[nH]1 [RALTITREXED] | > 30 µM | > 30 µM | > 30 µM |  | > 30 µM | > 30 µM | > 30 µM |  | > 30 µM | > 30 µM | > 30 µM | > 30 µM | > 30 µM | > 30 µM
C#CCN[C@@H]1CCc2ccccc21 [RASAGILINE] | > 30 µM | > 30 µM | > 30 µM |  | > 30 µM | > 30 µM | > 30 µM |  | > 30 µM | > 30 µM | > 30 µM | > 30 µM | > 30 µM | 
C#CCN(C)[C@H](C)Cc1ccccc1 [SELEGILINE] | > 10 µM | > 10 µM | > 10 µM | > 30 µM | > 10 µM | > 10 µM | > 10 µM | > 10 µM | > 30 µM | > 30 µM | > 10 µM | > 10 µM |  | 
Cc1c(C(=O)Nc2ccc(N3C[C@@H](C)O[C@@H](C)C3)nc2)cccc1-c1ccc(OC(F)(F)F)cc1 [SONIDEGIB] | > 30 µM |  |  |  | > 10 µM | > 10 µM | > 30 µM | > 30 µM | > 10 µM | > 30 µM | > 30 µM | > 10 µM |  | > 10 µM
TOCOFERSOLAN | > 30 µM | > 30 µM | > 30 µM | > 30 µM | > 30 µM | > 30 µM | > 30 µM | > 30 µM | > 30 µM | > 10 µM | > 30 µM | > 30 µM | > 30 µM | 

— ChEMBL document CHEMBL5291721, “A preclinical secondary pharmacology resource illuminates target-adverse drug reaction associations of marketed drugs” (Nat Commun, 2023)
